# Tested on: CDK2
# Experiment: Western blot of CDK2 level
# Assay type: cell-based, human
# Conditions: PC3 cells, simultaneous exposure to fer-siRNA and cycloheximide 10 μg/ml 4 h
# Method: For treatment with cycloheximide, PC3 cells transfected with siRNA for 72 h, were subjected to 10 μg/ml cycloheximide for additional 4 h, at the end of the transfection process.
# Whole cell lysates (WCL) were prepared as described before (Salem et al., 2005). For Western blot analysis, 20-30 μg proteins from each sample were resolved in 7-12% SDS-PAGE. Electroblotted proteins were detected using specific anti-Fer antibodies (Priel-Halachmi et al., 2000), anti-CDK2 (sc-6248, Santa Cruz), anti-CDK1 (sc-54, Santa Cruz), anti-CDK4 (610148, BD Biosciences), anti-CDK6 (554086, BD Biosciences), anti-CDK7 (sc-856, Santa Cruz), anti-cyclin A (sc-751, Santa Cruz), anti-cyclin D1 (sc-6281, Santa Cruz), anti-cyclin E (sc-247, Santa Cruz), anti-cyclin H (sc-1662, Santa Cruz), anti-pRB (sc-102, Santa Cruz), anti-phosphosthreonine^821-pRB (pThr821) (44-582, Biosource), anti-phosphoserine^795-pRB (pSer795) (sc-7986-R, Santa Cruz), anti-phosphoserine^780-pRB (pSer780) (9307, Cell Signaling), anti-phosphoserine^807/811-pRB (pSer807/811) (9308, Cell Signaling), anti-PP1α (2582, Cell Signaling), anti-PP1 (sc-443, Santa Cruz), anti-phosphothreonine^320-PP1α (pThr320) (2581, Cell Signaling), anti-p21Cip1 (sc-6246, Santa Cruz), anti-p27Kip1 (sc-528, Santa Cruz), anti-HA (NMS-101R, Covance), anti-Myc (13-2500, Zymed), and anti-Actin antibody (A 4700, Sigma). […]
smiles,measurement,value
C[C@@H]1C[C@@H]([C@H](O)CC2CC(=O)NC(=O)C2)C(=O)[C@@H](C)C1 [cycloheximide],effect on the fer-siRNA induced decrease of the level of CDK2,alleviated this effect

# — patent publication US20100151452A1, “Methods and Systems for Searching for Regulators of the Fer Protein and for Monitoring the Effects of the Fer Protein” (priority 2006, published 2010)
